Experimental data reported in patent US12024543B2, “Micropeptides and use of same for modulating gene expression” (UNIVERSITE PAUL SABATIER TOULOUSE III, priority 2013, dated 2024).

Experiments:
AtmiR319a [1] = test: Expression of AtmiPEP319a2 (AtmiORF319a) in tobacco expressing AtmiR319a; assay type: in vivo, Nicotiana benthamiana; details: overexpression of AtmiORF319a
Method: (§1) At present, AtmiPEP165a and AtmiPEP319a2, identified in Arabidopsis thaliana, have already been characterized.
(§2) The total RNA was extracted from roots of M. truncatula or from tobacco leaves using the extraction kit RNeasy Plant Mini Kit (Qiagen). The reverse transcription was performed using the reverse transcriptase SuperScript II (Invitrogen) starting from 500 ng of total RNA. Three repetitions (n=3) were carried out, each with two technical repetitions. Each experiment was repeated from two to three times. The amplifications by qPCR were carried out using a LightCycler 480 System thermocycler (Roche Diagnostics) by the method described in Lauressergues et al. (Plant J., 72(3): 512-22, 2012).
(§3) For the miPEPs 165a and 319a, the corresponding miORFs were cloned into pBIN19 by the method described in Combier et al. (Genes & Dev, 22: 1549-1559, 2008).
(§4) The composite plants having roots transformed with Agrobacterium rhizogenes were obtained by the method described in Boisson-Dernier et al. (Mol Plant-Microbe Interact, 18: 1269-1276, 2005). The transformed roots were verified and selected by observations of DsRED with a binocular fluorescence magnifier. The control roots correspond to roots transformed with A. rhizogenes not containing the pPEX-DsRED vector. Transformation of the tobacco leaves was carried out by the method described in Combier et al. (Genes & Dev, 22: 1549-1559, 2008).

MtmiR171b [2] = test: Regulation of MtmiR171b by MtmiPEP171b1 in transformed tobacco leaves; assay type: in vivo, Nicotiana benthamiana
Method: In order to determine whether the mechanism of regulation of the microRNAs is conserved in other plant species, the regulation of MtmiR171b by MtmiPEP171b1 was tested in a different cellular model. For this, MtmiR171b and MtmiPEP171b1 were introduced into tobacco leaves.
The accumulation of MtmiR171b was measured in tobacco leaves transformed in order to express MtmiR171b of Medicago truncatula starting from wild-type pri-miRNA capable of producing MtmiPEP171b1, or starting from a mutated version of pri-miRNA incapable of producing MtmiPEP171b1 (in which the start codon ATG of MtmiORF171b has been replaced with ATT) (FIG. 6 and FIG. 20).
The accumulation of pre-MtmiR171b was measured in tobacco leaves transformed in order to express MtmiR171b of Medicago truncatula alone (control), or additionally expressing the wild-type MtmiORF171b of Medicago truncatula (35SmiPEP171b1 ATG), or a mutated version of MtmiORF171b in which the start codon ATG has been replaced with ATT (35SmiPEP171b1 ATT) (FIG. 7 and FIG. 21).
The leaves were watered by spraying with the peptides using peptide solutions at different concentrations (0.01, 0.1, 1 μM), firstly 12h before sampling and then a second time 30 min before sampling.
as §2
(§5) The DNA fragments of interest were amplified with Pfu polymerase (Promega). The DNA fragments were cloned using the XhoI and NotI enzymes into a pPEX-DsRED plasmid for an overexpression under the control of the constitutive strong promoter 35S, and using the KpnI-NcoI enzymes into a pPEX GUS plasmid for the reporter genes, by the method described in Combier et al. (Genes & Dev, 22: 1549-1559, 2008).
as §4

Medicago truncatula = test: Number of lateral roots in M. truncatula; assay type: in vivo; details: vs control plant
Method: The surface of seeds of M. truncatula was sterilized and they were left to germinate on agar plates for 5 days at 4° C. in the dark. […] The lateral roots were counted every day. […] The mean values of the relative expression of the genes or of the production of lateral roots were analysed using the Student test or the Kruskal-Wallis test. The error bars represent the SEM (Standard Error of the Mean). The asterisks indicate a significant difference (p<0.05).

MtmiR171b [3] = test: Watering of M. truncatula plants with synthetic MtmiPEP171b1, relative expression by qRT-PCR; assay type: in vivo, Medicago truncatula; details: watering once daily for 5 days with MtmiPEP171b1 at 0.01, 0.1 or 1 μM
Method: The surface of seeds of M. truncatula was sterilized and they were left to germinate on agar plates for 5 days at 4° C. in the dark. The young shoots were then grown on 12-cm square plates filled with Fahraeus medium without nitrogen and containing 7.5 μM phosphate (Lauressergues et al., Plant J., 72(3): 512-22, 2012). The lateral roots were counted every day. In pots, the plants were watered every other day with modified Long Ashton medium with low phosphorus content (Balzergue et al., Journal of Experimental Botany, (62)1049-1060, 2011).
The peptides were synthesized by Eurogentec or Smartox-Biotech. MtmiPEP171b1 was resuspended in a solution of 40% water/50% acetonitrile/10% acetic acid (v/v/v), and the other peptides were resuspended in water.
The RNA was extracted using the reagent Tri-Reagent (MRC) according to the manufacturer's instructions, except for precipitation of the RNA, which was carried out with 3 volumes of ethanol. The reverse transcription of the RNA was carried out using the specific stem-loop primer RTprimer171b in combination with hexamers for performing the reverse transcription of RNA of high molecular weight.
In brief, 1 μg of RNA was added to the stem-loop primer MIR171b (0.2 μM), the hexamer (500 ng), the buffer RT (1×), the enzyme SuperScript Reverse transcriptase (SSIII) (one unit), the dNTPs (0.2 mM each), DTT (0.8 mM) in a final reaction mixture of 25 μl. In order to carry out the reverse transcription, a reaction of pulsed reverse transcription was performed (40 repetitions of the following cycle: 16° C. for 2 minutes, 42° C. for one minute and 50° C. for one second, followed by a final inactivation of the reverse transcription at 85° C. for 5 minutes).
as §2
The mean values of the relative expression of the genes or of the production of lateral roots were analysed using the Student test or the Kruskal-Wallis test. The error bars represent the SEM (Standard Error of the Mean). The asterisks indicate a significant difference (p<0.05).

MtmiR171b [4] = test: Overexpression of MtmiPEP171b1 (MtmiORF171b) in M. truncatula roots, relative expression by qRT-PCR; assay type: in vivo, Medicago truncatula; details: vs control plant
Method: as §2, §5, §4

[5] = test system: pre-MtmiR169, pre-MtmiR169a, pre-MtmiR171a, pre-MtmiR171h, pre-MtmiR393a, pre-MtmiR393b, pre-MtmiR396a, pre-MtmiR396b; test: Specificity of miPEP171b1: expression of different microRNA precursors of M. truncatula; assay type: in vivo, Medicago truncatula; details: overexpression of MtmiPEP171b1 or treatment with MtmiPEP171b1 (0.1 μM), ratio to control roots
Method: The expression of different microRNA precursors of Medicago truncatula (MtmiR171b SEQ ID NO: 319, MtmiR169 SEQ ID NO: 367, MtmiR169a SEQ ID NO: 368, MtmiR171a SEQ ID NO: 369, MtmiR171h SEQ ID NO: 370, MtmiR393a SEQ ID NO: 371, MtmiR393b SEQ ID NO: 372, MtmiR396a SEQ ID NO: 373 and MtmiR396b SEQ ID NO: 374) was determined and compared between control plants and plants in which MtmiORF171b encoding MtmiPEP171b1 was overexpressed (FIG. 5A), or between control plants and plants grown on culture medium containing MtmiPEP171b1 (FIG. 5B).
as §2

Arabidopsis thaliana [6] = test: Growth of Arabidopsis thaliana plants watered with synthetic miPEP; assay type: in vivo; details: A. thaliana; watered with 0.1 μM synthetic peptide, 3 weeks of growth, vs water
Method: The photographs show two plants (top views and side views) after 3 weeks of growth: a control plant watered with water (A), and a plant watered with a composition of 0.1 μM of synthetic peptide corresponding to AtmiPEP164a (B).
The photographs show two plants (top views and side views) after 3 weeks of growth: a control plant watered with water (A), and a plant watered with a composition of 0.1 μM of synthetic peptide corresponding to AtmiPEP319a1 (B).

AtmiR319a [7] = test: Overexpression of AtmiPEP319a1 in A. thaliana, qRT-PCR of AtmiR319a; assay type: in vivo, Arabidopsis thaliana; details: overexpression of AtmiPEP319a1 vs control plant
AtmiR165a [8] = test: Northern blot of miR165a in A. thaliana roots treated with synthetic AtmiPEP165a; assay type: in vivo, Arabidopsis thaliana; details: 0.1 μM synthetic miPEP165a in water vs water
AtmiR165a [9] = test: Expression of AtmiPEP165a (AtmiORF165a) in tobacco expressing AtmiR165a; assay type: in vivo, Nicotiana benthamiana; details: overexpression of AtmiORF165a
Method: as §1, §2, §3, §4

AtmiR165a [10] = test: Relative expression of AtmiR165a and its target genes in A. thaliana roots treated with AtmiPEP165a; assay type: in vivo, Arabidopsis thaliana; details: AtmiPEP165a 0.01, 0.1, 1 or 10 μM vs water
Arabidopsis thaliana [11] = test: Root growth of Arabidopsis thaliana treated with AtmiPEP165a; assay type: in vivo; details: Arabidopsis thaliana treated with AtmiPEP165a vs control plant of the same age
AtmiR164a = test: Northern blot of miR164a in A. thaliana roots treated with synthetic AtmiPEP164a; assay type: in vivo, Arabidopsis thaliana; details: 0.1 μM synthetic miPEP164a in water vs water
Method: Northern blot analysis was carried out according to the protocol described in Lauressergues et al. Plant J, 72(3): 512-22, 2012.
The biological samples were homogenized in a buffer containing 0.1 M of NaCl, 2% of SDS, 50 mM of Tris-HCl (pH 9), 10 mM of EDTA (pH 8) and 20 mM of mercaptoethanol, and the RNA was extracted twice with a phenol/chloroform mixture and was precipitated with ethanol.
The RNA was loaded on PAGE 15% gel and transferred to a nylon membrane (HybondNX, Amersham). RNA was hybridized with a radioactive oligonucleotide probe labelled at its end, in order to detect the RNA U6 or for miR164a.
The hybridizations were carried out at 55° C. The hybridization signals were quantified using a phosphorimager (Fuji) and normalized with the signal of the specific probe of RNA U6.

[12] = tobacco expressing MtmiR171b, overexpression of MtmiPEP171b1 or 0.1 μM miPEP171b1, FIG. 9

Which “accumulation of AtmiR319a” value (AtmiR319a [1]) does the source give for “MFQTLYLFIYIHTNILLLS (listed as Arabidopsis thaliana) [AtmiPEP319a2]” here?
The value was “increase”.

For “MLLHRLSKFCKIERDIVYIS (listed as Medicago truncatula) [MtmiPEP171b1]”, which “relative expression of pre-MtmiR171b (expression of MtmiR171b)” value (MtmiR171b [2]; tobacco expressing MtmiR171b, co-expression of MtmiPEP171b1 (MtmiORF171b ATG vs ATT), FIG. 7) is on record?
Its value is “increases”.

And the “accumulation of MtmiR171b” value (MtmiR171b [2]; tobacco expressing MtmiR171b, MtmiPEP171b1 sprayed (0.1 μM) twice, 12 h and 30 min before sampling)?
Its value is “increase”.

And the “accumulation of MtmiR171b” value (MtmiR171b [2]; [12])?
The value was “increase”.

And the “accumulation of pre-MtmiR171b” value (MtmiR171b [2]; [12])?
Its value is “increase”.

What about the “expression of MtmiR171b (pre-MtmiR171b) with MtmiPEP171b1 with or without protein tags” value (MtmiR171b [2]; tobacco leaves, tags His, HA or GFP) of the same sequence?
The value was “increases the expression of MtmiR171b, and this effect is independent of the presence of tags”.

What about the “relative expression of MtmiR171b” value (MtmiR171b [2]; tobacco, vector expressing mtmiPEP171b vs empty vector, ATT mutant or degenerate ORF, FIG. 21) of the same sequence?
Its value is “increases”.

And the “accumulation of MtmiR171b in the absence of translation of MtmiPEP171b1” value (MtmiR171b [2]; tobacco, pri-MtmiR171b with ATG of miORF171b replaced with ATT (or miORF deleted) vs wild-type pri-MtmiR171b)?
The value was “marked decrease”.

And the “number of lateral roots” value (Medicago truncatula; overexpression of MtmiPEP171b1 (MtmiORF171b))?
Its value is “reduction”.

What about the “number of lateral roots” value (Medicago truncatula; watering with MtmiPEP171b1 at 0.1 μM once daily for 5 days) of the same sequence?
The value was “reduction”.

And the “accumulation of MtmiR171b” value (MtmiR171b [3]; vs control plant)?
The value was “increase”.

What about the “expression of the HAM1 gene” value (MtmiR171b [3]; vs control plant) of the same sequence?
The value was “decrease”.

What about the “expression of the HAM2 gene” value (MtmiR171b [3]; vs control plant) of the same sequence?
The value was “decrease”.

What about the “accumulation of pre-MtmiR171b” value (MtmiR171b [3]; vs control plants) of the same sequence?
The value was “increase”.

And the “accumulation of MtmiR171b” value (MtmiR171b [4])?
The value was “increase”.

And the “expression of the HAM1 gene” value (MtmiR171b [4])?
The value was “decrease”.

And the “expression of the HAM2 gene” value (MtmiR171b [4])?
Its value is “decrease”.

And the “effect on the accumulation of the other miRNAs (precursors of MtmiR169, 169a, 171a, 171h, 393a, 393b, 396a, 396b)” value [5]?
Its value is “not on the other miRNAs”.

With “MNIHTYHHLLFPSLVFHQSSDVPNALSLHIHTYEYIIVVIDPFRITLAFR (listed as Arabidopsis thaliana) [AtmiPEP319a1]” as the sequence, how does the plant growth (Arabidopsis thaliana [6]) read?
Its plant growth is “increases plant growth significantly”.

What about the “accumulation of AtmiR319a” value (AtmiR319a [7]) of the same sequence?
The value was “increase”.

What does the source list for “MRVKLFQLRGMLSGSRIL (listed as Arabidopsis thaliana) [AtmiPEP165a]”?
accumulation of miR165a (Northern blot) (AtmiR165a [8]): increase; accumulation of AtmiR165a (AtmiR165a [9]): increase; accumulation of AtmiR165a (AtmiR165a [10]): dose-dependent effect; regulation of the target genes of miR165a (PHV, PHB and REV) (AtmiR165a [10]): negative regulation; root growth phenotype (Arabidopsis thaliana [11]): greatly accelerated root growth

Which plant growth (Arabidopsis thaliana [6]) does the source give for “MPSWHGMVLLPYVKHTHASTHTHTHNIYGCACELVFH (listed as Arabidopsis thaliana) [AtmiPEP164a1]” here?
Its plant growth is “increases plant growth significantly”.

And the “accumulation of miR164a (Northern blot)” value (AtmiR164a)?
Its value is “increase”.
